Reference: paper PMC3166236 (Journal of medicinal chemistry, 2011)

Tests used:
[1] = system: KB cells; conditions: human
[2] = Enzymatic stability in rat intestinal homogenate pH 6.5 at 37 °C; conditions: Sprague-Dawley, pH 6.5, Half-lives, rat intestinal homogenate pH 6.5, 37 °C
[3] = in vitro; conditions: human
[4] = Stability in rat plasma
[5] = in vivo murine model; relative to 2 or its cyclic form 4; cited from earlier work
[6] = parent (S)-HPMPA; cited from earlier work
[7] = system: Vaccinia virus strain Copenhagen; assay: microbe, parasite or virus in culture; type: cell-based; conditions: Orthopoxvirus vaccinia, read-out: Antiviral Activity IC50 Vaccinia
[8] = system: Towne strain of HCMV; assay: microbe, parasite or virus in culture; type: cell-based, human cytomegalovirus; conditions: Human betaherpesvirus 5, read-out: Antiviral Activity IC50 HCMV
[9] = system: hPEPT1; conditions: hPEPT1 expressed in the model system; cited from earlier work
[10] = t1/2 Intestinal Homogenate pH 6.5, Rp isomer
[11] = t1/2 Intestinal Homogenate pH 6.5, Sp isomer

Structure (SMILES)	half-life at 0.5 mg/ml [2, 10]	half-life at 0.5 mg/ml [2, 11]	IC50 [3]	also measured
CC(C)OC(=O)[C@@H](N)Cc1ccc(OP2(=O)CO[C@@H](Cn3ccc(N)nc3=O)CO2)cc1 (mixture of isomers) [8´, Isopropyl O-[(5S)-5-[(4-amino-2-oxopyrimidin-1(2H)-yl)methyl]-2-oxido-1,4,2-dioxaphosphinan-2-yl]-(L)-tyrosinate]				IC50 [1]: > 100 µM
CC(C)CNC(=O)[C@@H](N)Cc1ccc(OP2(=O)CO[C@@H](Cn3cnc4c(N)ncnc43)CO2)cc1 (mixture of isomers) [11´, O-[(5S)-5-[(6-Amino-9H-purin-9-yl)methyl]-2-oxido-1,4,2-dioxaphosphinan-2-yl]-N-(2-methylpropyl)-(L)-tyrosinamide]				IC50 [1]: > 100 µM
CC(C)OC(=O)[C@@H](N)Cc1ccc(OP2(=O)CO[C@@H](Cn3ccc(N)nc3=O)CO2)cc1 (mixture of isomers) [Compound 8, Isopropyl O-[(5S)-5-[(4-amino-2-oxopyrimidin-1(2H)-yl)methyl]-2-oxido-1,4,2-dioxaphosphinan-2-yl]-(L)-tyrosinate]	< 0.5 h	< 0.5 h	> 100 µM	
CC(C)CNC(=O)[C@@H](N)Cc1ccc(OP2(=O)CO[C@@H](Cn3cnc4c(N)ncnc43)CO2)cc1 (mixture of isomers) [Compound 11, O-[(5S)-5-[(6-Amino-9H-purin-9-yl)methyl]-2-oxido-1,4,2-dioxaphosphinan-2-yl]-N-(2-methylpropyl)-(L)-tyrosinamide]	12.8 h	1.9 h	> 100 µM	half-life ([4]; Rp diastereomer): 3.55 h; half-life ([4]; Sp diastereomer): 0.383 h
COC(=O)C(COP1(=O)COC(Cn2ccc(N)nc2=O)CO1)NC(=O)C(N)C(C)C (stereo not drawn) [(L)-Val-(L)-Ser-OMe cHPMPC]				increase in oral bioavailability of total 2 species [5]: eight-fold
Nc1ncnc2c1ncn2C[C@@H](CO)OCP(=O)(O)O [Compound 1, (S)-9-[3-hydroxy-2-(phosphonomethoxy)propyl]adenine, reference compound]			> 100 µM	oral bioavailability of the parent compound [6]: < 5%
Nc1ccn(C[C@@H](CO)OCP(=O)(O)O)c(=O)n1 [Compound 2, 1-(S)-[3-hydroxy-2-(phosphonomethoxy)propyl]cytosine, reference compound]			> 100 µM	IC50 [7]: 20 µM
Nc1ncnc2c1ncn2C[C@H]1COP(=O)(O)CO1 [Compound 3, (5S)-5-[(6-Amino-9H-purin-9-yl)methyl]-1,4,2-dioxaphosphinan-2-ol 2-oxide, reference compound]			> 100 µM	
Nc1ccn(C[C@H]2COP(=O)(O)CO2)c(=O)n1 [Compound 4]			> 100 µM	IC50 [8]: 0.25 µM; IC50 [7]: 40 µM
COC(=O)[C@@H](N)Cc1ccc(OP2(=O)CO[C@@H](Cn3ccc(N)nc3=O)CO2)cc1 (stereo partly drawn) [Compound 6, Methyl O-[(5S)-5-[(4-amino-2-oxopyrimidin-1(2H)-yl)methyl]-2-oxido-1,4,2-dioxaphosphinan-2-yl]-(L)-tyrosinate]	< 0.5 h	< 0.5 h	> 100 µM	
COC(=O)[C@H](N)Cc1ccc(OP2(=O)CO[C@@H](Cn3ccc(N)nc3=O)CO2)cc1 (stereo partly drawn) [Compound 7, Methyl O-[(5S)-5-[(4-amino-2-oxopyrimidin-1(2H)-yl)methyl]-2-oxido-1,4,2-dioxaphosphinan-2-yl]-(D)-tyrosinate]	3.5 h	1.2 h	> 100 µM	
CC(C)(C)NC(=O)[C@H](N)Cc1ccc(OP2(=O)CO[C@@H](Cn3ccc(N)nc3=O)CO2)cc1 (stereo partly drawn) [Compound 9, O-[(5S)-5-[(4-Amino-2-oxopyrimidin-1(2H)-yl)methyl]-2-oxido-1,4,2-dioxaphosphinan-2-yl]-N-tert-butyl-(D)-tyrosinamide]	28.9 h	3.85 h	> 100 µM	
COC(=O)[C@@H](N)Cc1ccc(OP2(=O)CO[C@@H](Cn3cnc4c(N)ncnc43)CO2)cc1 (stereo partly drawn) [Compound 10, Methyl O-[(5S)-5-[(6-amino-9H-purin-9-yl)methyl]-2-oxido-1,4,2-dioxaphosphinan-2-yl]-(L)-tyrosinate]	< 0.5 h	< 0.5 h	> 100 µM	
COC(=O)[C@H](Cc1ccc(OP2(=O)CO[C@@H](Cn3cnc4c(N)ncnc43)CO2)cc1)NC(=O)[C@@H](N)C(C)C (stereo partly drawn) [Compound 13, Methyl (L)-valyl-O-[(5S)-5-[(6-amino-9H-purin-9-yl)methyl]-2-oxido-1,4,2-dioxaphosphinan-2-yl]-(L)-tyrosinate]	< 0.5 h	< 0.5 h	> 100 µM	
CC(C)CNC(=O)[C@@H](N)Cc1ccc(OP(=O)(O)CO[C@H](CO)Cn2cnc3c(N)ncnc32)cc1 [Compound 28, O-[([[(2S)-1-(6-Amino-9H-purin-9-yl)-3-hydroxypropan-2-yl]oxy]methyl)(hydroxy)phosphoryl]-N-(2-methylpropyl)-(L)-tyrosinamide]			> 100 µM	
COC(=O)[C@H](COP1(=O)CO[C@@H](Cn2ccc(N)nc2=O)CO1)NC(=O)[C@@H](N)C(C)C (stereo partly drawn) [Val-Ser-OMe cHPMPC]				binding and transport by hPEPT1 [9]: tightly bound but not transported
